Experimental data from patent US20260285853A1, “COMPOUNDS AND METHODS FOR MODULATING SPLICING” (REMIX THERAPEUTICS INC., priority 2023, published 2026).
Structures can show the parent of a compound that is named as a salt. Where two headings read alike, the source gives them in different places.

Tests used:
Assay type in all cases: cell-based
HTT mRNA [1] = experiment: Gene panel canonical junction qPCR assay, decrease in CJ mRNA, Table 3
How it was run: (§1)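 Eleven-point dose responses from 10 uM final, 24 h, DMSO ≤0.25%, in A673 or K562 cells. Relative quantification by 2^(−ΔΔCt) against housekeeper and vehicle was converted to percent response over fixed ΔCt windows and fitted to yield IC50.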

MYB mRNA [2] = experiment: as above
How it was run: as §1

HTT mRNA [3] = experiment: Splicing RT-qPCR assay (THP), Table 2A
MYB mRNA [4] = experiment: Splicing RT-qPCR assay (THP), Table 2A
[5] = test system: SH-SY5Y (human neuroblastoma) cells; experiment: Cell viability, Cell Titer Glo 2.0 assay; settings: read-out: Viability SHSY5Y.3 GI50
How it was run: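 Following a 72 h incubation (37 °C, 5% CO2, 0.1% DMSO final), compound toxicity toward SH-SY5Y cells was quantified by CellTiter-Glo 2.0.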

[6] = decrease in canonical junction (CJ) mRNA, gene panel qPCR, Table 3
[7] = Table 2A (THP), AJ mRNA increase, read-out: HTT AJ (increase in alternative junction mRNA, AC50)
[8] = Table 2A (THP), CJ mRNA decrease, read-out: HTT CJ (decrease in canonical junction mRNA, IC50)
[9] = Table 2A (THP), AJ mRNA increase, read-out: MYB AJ (increase in alternative junction mRNA, AC50)
[10] = Table 2A (THP), CJ mRNA decrease, read-out: MYB CJ (decrease in canonical junction mRNA, IC50)
[11] = decrease in CJ mRNA levels, canonical junction qPCR, gene panel
[12] = Table 2A, THP, HTT alternative junction (AJ) mRNA, read-out: HTT AJ (AC50, increase in alternative junction mRNA)
[13] = Table 2A, THP, HTT canonical junction (CJ) mRNA, read-out: HTT CJ (IC50, decrease in canonical junction mRNA)
[14] = Table 2A, THP, MYB alternative junction (AJ) mRNA, read-out: MYB AJ (AC50, increase in alternative junction mRNA)
[15] = Table 2A, THP, MYB canonical junction (CJ) mRNA, read-out: MYB CJ (IC50, decrease in canonical junction mRNA)

| SMILES | IC50 (HTT mRNA [1]; [6]) | IC50 (MYB mRNA [2]; [6]) | AC50 (HTT mRNA [3]; [7]) | IC50 (HTT mRNA [3]; [8]) | AC50 (MYB mRNA [4]; [9]) | IC50 (MYB mRNA [4]; [10]) | GI50 [5] | IC50 (HTT mRNA [1]; [11]) | IC50 (MYB mRNA [2]; [11]) | AC50 (HTT mRNA [3]; [12]) | IC50 (HTT mRNA [3]; [13]) | AC50 (MYB mRNA [4]; [14]) | IC50 (MYB mRNA [4]; [15]) |
| --- | --- | --- | --- | --- | --- | --- | --- | --- | --- | --- | --- | --- | --- |
| Cc1cn2cc(NC(=O)c3c(F)cc(N4CC5(CNC5)C4)c4cn(C)nc34)nc2c(C)n1 [Compound 470, 4-(2,6-diazaspiro[3.3]heptan-2-yl)-N-(6,8-dimethyl-imidazo-[1,2-a]-pyrazin-2-yl)-6-fluoro-2-methyl-indazole-7-carboxamide] | 100 to 1000 nM | 100 to 1000 nM | 100 to 1000 nM | 100 to 1000 nM | 100 to 1000 nM | 100 to 1000 nM | 100 to 1000 nM | – | – | – | – | – | – |
| COc1nc2c(C(=O)Nc3cn4cc(C)nc4c(F)c3OC)ccc(N3C[C@H](C)N[C@@H](C)C3)c2s1 [Compound 764, 7-((3S,5S)-3,5-dimethylpiperazin-1-yl)-N-(8-fluoro-7-methoxy-2-methylimidazo[1,2-a]pyridin-6-yl)-2-methoxybenzo[d]thiazole-4-carboxamide 2,2,2-trifluoroacetate] | – | – | – | – | – | – | 100 to 1000 nM | 1000 to 10000 nM | < 100 nM | > 10000 nM | 1000 to 10000 nM | < 100 nM | < 100 nM |
| COc1cc2c(N3CCC(NC4CC4)CC3)ccc(C(=O)Nc3cc(F)c4nc(C)cn4c3)n2n1 [Compound 689, 4-[4-(cyclopropylamino)-1-piperidyl]-N-(8-fluoro-2-methyl-imidazo[1,2-a]pyridin-6-yl)-2-methoxy-pyrazolo[1,5-a]pyridine-7-carboxamide] | – | – | – | – | – | – | < 100 nM | < 100 nM | < 100 nM | 100 to 1000 nM | < 100 nM | < 100 nM | < 100 nM |
| Cc1cn2cc(NC(=O)c3ccc(N4CCC(NC5CC5)CC4)c4cn(C)nc34)nc2c(Cn2cnc(C(N)=O)c2)n1 [Compound 775, N-(8-((4-carbamoyl-1H-imidazol-1-yl)methyl)-6-methylimidazo[1,2-a]pyrazin-2-yl)-4-(4-(cyclopropylamino)piperidin-1-yl)-2-methyl-2H-indazole-7-carboxamide 2,2,2-trifluoroacetate] | – | – | – | – | – | – | > 10000 nM | > 10000 nM | > 10000 nM | > 10000 nM | > 10000 nM | > 10000 nM | > 10000 nM |
| Cn1cc2cc(NC(=O)c3ccc(N4CCC(NC5CC5)CC4)c4cn(C)nc34)cc(CNc3ncccn3)c2n1 [Compound 861, 4-[4-(cyclopropylamino)-1-piperidyl]-2-methyl-N-[2-methyl-7-[(pyrimidin-2-ylamino)methyl]indazol-5-yl]indazole-7-carboxamide] | – | – | – | – | – | – | 1000 to 10000 nM | 1000 to 10000 nM | 100 to 1000 nM | > 10000 nM | 1000 to 10000 nM | 100 to 1000 nM | 100 to 1000 nM |
| COc1cc2nccn2cc1NC(=O)c1ccc(N2CCC(NC3CC3)CC2)c2cn(C)nc12 [Compound 574, 4-[4-(cyclopropylamino)-1-piperidyl]-N-(7-methoxy-imidazo[1,2-a]pyridin-6-yl)-2-methylindazole-7-carboxamide] | > 10000 nM | > 10000 nM | > 10000 nM | > 10000 nM | > 10000 nM | > 10000 nM | 1000 to 10000 nM | – | – | – | – | – | – |
| Cc1cn2cc(NC(=O)c3ccc(N4CCC(N[C@@H]5C[C@@H]5O)CC4)c4cn(C)nc34)cc(F)c2n1 [Compound 371, N-(8-fluoro-2-methyl-imidazo-[1,2-a]pyridin-6-yl)-4-(4-(((1R,2S)-2-hydroxy-cyclopropyl)-amino)piperidin-1-yl)-2-methyl-2H-indazole-7-carboxamide hydrochloride] | 1000 to 10000 nM | 100 to 1000 nM | 1000 to 10000 nM | 1000 to 10000 nM | < 100 nM | 100 to 1000 nM | 1000 to 10000 nM | – | – | – | – | – | – |
| CNc1cc(N2CCC(NC3CC3)CC2)c2cn(C)nc2c1C(=O)Nc1cc2cn(C)nc2cc1OC [Compound 435, 2,2,2-trifluoroacetate] | > 10000 nM | > 10000 nM | > 10000 nM | > 10000 nM | > 10000 nM | > 10000 nM | 1000 to 10000 nM | – | – | – | – | – | – |
| Cc1cn2cc(NC(=O)c3ccc(N4CCC(NC5(C)CC5)CC4)c4cn(C)nc34)cc(F)c2n1 [Compound 355, N-(8-fluoro-2-methyl-imidazo[1,2-a]-pyridin-6-yl)-2-methyl-4-[4-[(1-methyl-cyclopropyl)amino]-1-piperidyl]indazole-7-carboxamide] | 100 to 1000 nM | < 100 nM | 100 to 1000 nM | 100 to 1000 nM | < 100 nM | < 100 nM | 100 to 1000 nM | – | – | – | – | – | – |
| CC(=O)NCc1nc(C)cn2cc(NC(=O)c3ccc(N4CCC(NC5CC5)CC4)c4cn(C)nc34)nc12 [Compound 725, N-[8-(acetamidomethyl)-6-methyl-imidazo[1,2-a]pyrazin-2-yl]-4-[4-(cyclopropylamino)-1-piperidyl]-2-methyl-indazole-7-carboxamide] | – | – | – | – | – | – | > 10000 nM | > 10000 nM | > 10000 nM | > 10000 nM | > 10000 nM | > 10000 nM | > 10000 nM |
| CCNC1(C)CCN(c2ccc(C(=O)Nc3cn4cc(C)nc(C)c4c3F)c3nn(C)cc23)CC1 [Compound 571, 4-[4-(ethylamino)-4-methyl-1-piperidyl]-N-(8-fluoro-1,3-dimethyl-pyrrolo[1,2-a]-pyrazin-7-yl)-2-methyl-indazole-7-carboxamide] | > 10000 nM | 1000 to 10000 nM | > 10000 nM | > 10000 nM | 1000 to 10000 nM | 1000 to 10000 nM | 1000 to 10000 nM | – | – | – | – | – | – |
| CC(c1cc(NC(=O)c2ccc(N3CCC(NC4CC4)CC3)c3cn(C)nc23)cc2cn(C)nc12)S(=O)(=O)N(C)C (stereo not shown) [Compound 868] | – | – | – | – | – | – | 1000 to 10000 nM | > 10000 nM | > 10000 nM | > 10000 nM | > 10000 nM | > 10000 nM | > 10000 nM |
| Cn1cc2c(N3CCC(NC4CC4)CC3)cc(F)c(C(=O)Nc3ccnnc3O)c2n1 [Compound 420, 4-[4-(cyclopropylamino)-1-piperidyl]-6-fluoro-N-(3-hydroxypyridazin-4-yl)-2-methyl-indazole-7-carboxamide] | > 10000 nM | > 10000 nM | > 10000 nM | > 10000 nM | > 10000 nM | > 10000 nM | > 10000 nM | – | – | – | – | – | – |
| Cn1cc2cc(NC(=O)c3ccc(N4CCCCC4)c4cn(C)nc34)cc(CNS(C)(=O)=O)c2n1 [Compound 844] | – | – | – | – | – | – | 1000 to 10000 nM | > 10000 nM | > 10000 nM | > 10000 nM | > 10000 nM | > 10000 nM | > 10000 nM |
| Cc1nc(C)c2nc(NC(=O)c3ccc(N4CCC(NC5CC5)CC4)c4cn(C)nc34)cn2c1C [Compound 495, 4-[4-(cyclopropyl-amino)-1-piperidyl]-2-meth-yl-N-(5,6,8-trimethylimi-dazo-[1,2-a]pyrazin-2-yl)-indazole-7-carboxamide] | 100 to 1000 nM | 100 to 1000 nM | 100 to 1000 nM | 100 to 1000 nM | 100 to 1000 nM | 100 to 1000 nM | 100 to 1000 nM | – | – | – | – | – | – |
| COc1nc2c(C(=O)Nc3ccc4nn(C)cc4c3C(C)=O)ccc(N3C[C@H](C)N[C@@H](C)C3)c2s1 [Compound 808] | – | – | – | – | – | – | 1000 to 10000 nM | > 10000 nM | > 10000 nM | 1000 to 10000 nM | > 10000 nM | > 10000 nM | > 10000 nM |
